The experiment concerns 233499-124-R-J3-PDC complex spheroid viability. Put plainly: Anticancer human tumor 233499-124-R-J3-PDC patient-derived colon adenocarcinoma cell line growth inhibition [CLK]. Particulars: for viability, T/C: stronger effect = lower value. The method, boiled down:
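Multi-cell-type spheroids combined patient-derived tumor cells with HUVEC endothelial cells and human mesenchymal stem cells. Paired agents were dosed in half-log steps down from about clinical Cmax, or from 10 microM where Cmax was unknown.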

Where [1] appears, read: curve of first compound, second compound 0.0316 µM.
The mark [2] stands for this setting: curve of first compound, second compound 0.1 µM.
[3] abbreviates: curve of first compound, second compound 0.316 µM.
Where [4] appears, read: curve of first compound, second compound 1 µM.
Setting [5] is: curve of first compound, second compound 3.16 µM.
Where [6] appears, read: curve of first compound, second compound 10 µM.
Where [7] appears, read: second compound 0.0316 µM, first compound 0.0316 µM.
Setting [8] is: second compound 0.0316 µM, first compound 0.1 µM.
[9] abbreviates: second compound 0.1 µM, first compound 0.0316 µM.
Setting [10] is: second compound 0.1 µM, first compound 0.1 µM.
The mark [11] stands for this setting: second compound 0.316 µM, first compound 0.0316 µM.
Where [12] appears, read: second compound 0.316 µM, first compound 0.1 µM.
The mark [13] stands for this setting: second compound 1 µM, first compound 0.0316 µM.
The mark [14] stands for this setting: second compound 1 µM, first compound 0.1 µM.
[15] abbreviates: second compound 3.16 µM, first compound 0.0316 µM.
Setting [16] is: second compound 3.16 µM, first compound 0.1 µM.
[17] abbreviates: second compound 10 µM, first compound 0.0316 µM.
Setting [18] is: second compound 10 µM, first compound 0.1 µM.

Here are results for 5 compounds from PubChem BioAssay AID2060613 (Molecular Pharmacology Branch, DTP, NCI, 2025).

Molecules are shown by their SMILES. Several values for one entry are separate records, joined by “and”; a condition that tells them apart may be missing. Equal values may be shown once. Some results are limits rather than exact numbers.
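Further: spheroids exposed to the drug combinations for seven days.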
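Wherever viability, T/C is given: percent viability relative to DMSO vehicle control wells taken as 100%.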

What is called IC50 is the concentration at which inhibition is half-maximal. The viability, T/C is the ratio of treated to control. `CC(=O)O[C@H]1C(=O)[C@@]2(C)[C@H]([C@H](OC(=O)c3ccccc3)[C@]3(O)C[C@H](OC(=O)[C@H](O)[C@@H](NC(=O)c4ccccc4)c4ccccc4)C(C)=C1C3(C)C)[C@]1(OC(C)=O)CO[C@@H]1C[C@@H]2O` + CN1CCN(c2cc(C(=O)Nc3cc4cc(-c5cnn(C)c5)ccc4cn3)ccn2)CC1: the IC50 runs as follows: under setting [1], 69.9 nM; under setting [2], 57.7 nM; under setting [3], 39.4 nM; under setting [4], < 31.6 nM; under setting [5], < 31.6 nM; under setting [6], < 31.6 nM. For the same compound, the viability, T/C under setting [7] was 79.9%; the viability, T/C under setting [8] was 36.4%; the viability, T/C (second compound 0.0316 µM, first compound 0.316 µM) was 15.7%; the viability, T/C (second compound 0.0316 µM, first compound 1 µM) is 14.2%; the viability, T/C (second compound 0.0316 µM, first compound 3.16 µM) was 14.4%; the viability, T/C (second compound 0.0316 µM, first compound 10 µM) is 21.8%. Moreover, the viability, T/C is, setting by setting: under setting [9], 77.1%; under setting [10], 25.5%; (second compound 0.1 µM, first compound 0.316 µM) 11.9%; (second compound 0.1 µM, first compound 1 µM) 10.2%; (second compound 0.1 µM, first compound 3.16 µM) 12%; (second compound 0.1 µM, first compound 10 µM) 15.1%. Moreover, the viability, T/C runs as follows: under setting [11], 57.5%; under setting [12], 18.2%; (second compound 0.316 µM, first compound 0.316 µM) 15.6%; (second compound 0.316 µM, first compound 1 µM) 11.5%; (second compound 0.316 µM, first compound 3.16 µM) 13.8%; (second compound 0.316 µM, first compound 10 µM) 11.9%. In addition, the viability, T/C is, setting by setting: under setting [13], 0.76%; under setting [14], 1.44%; (second compound 1 µM, first compound 0.316 µM) 1.17%; (second compound 1 µM, first compound 1 µM) 1.02%; (second compound 1 µM, first compound 3.16 µM) 0.56%; (second compound 1 µM, first compound 10 µM) 0.53%. Further, the viability, T/C runs as follows: under setting [15], 0.61%; under setting [16], 0.63%; (second compound 3.16 µM, first compound 0.316 µM) 0.56%; (second compound 3.16 µM, first compound 1 µM) 0.52%; (second compound 3.16 µM, first compound 3.16 µM) 0.59%; (second compound 3.16 µM, first compound 10 µM) 0.74%. Moreover, the viability, T/C is 0.46% under setting [17]; 0.45% under setting [18]; 0.39% (second compound 10 µM, first compound 0.316 µM); 0.43% (second compound 10 µM, first compound 1 µM); 0.43% (second compound 10 µM, first compound 3.16 µM); 0.39% (second compound 10 µM, first compound 10 µM).
As for `Cn1ncnc1[C@H]1c2n[nH]c(=O)c3cc(F)cc(c23)N[C@@H]1c1ccc(F)cc1` + CNC(=O)c1ccc(Nc2nc(OC3CCCC3)c3c(-c4ccc5nc(C)oc5c4)c[nH]c3n2)c(OC)c1, the concentration for half-maximal inhibition (IC50) was > 100 nM under setting [1]; > 100 nM under setting [2]; > 100 nM under setting [3]; > 100 nM under setting [4]; > 100 nM under setting [5]; > 100 nM under setting [6]. The viability, T/C reads like this: (second compound 0.0316 µM, first compound 0.000316 µM) 91.3%; (second compound 0.0316 µM, first compound 0.001 µM) 96.5%; (second compound 0.0316 µM, first compound 0.00316 µM) 91%; (second compound 0.0316 µM, first compound 0.01 µM) 95.9%; under setting [7], 110%; under setting [8], 103%. In addition, the viability, T/C reads like this: (second compound 0.1 µM, first compound 0.000316 µM) 77.5%; (second compound 0.1 µM, first compound 0.001 µM) 71.4%; (second compound 0.1 µM, first compound 0.00316 µM) 77.2%; (second compound 0.1 µM, first compound 0.01 µM) 71.8%; under setting [9], 78.8%; under setting [10], 60.8%. In addition, the viability, T/C is, setting by setting: (second compound 0.316 µM, first compound 0.000316 µM) 80.5%; (second compound 0.316 µM, first compound 0.001 µM) 75.5%; (second compound 0.316 µM, first compound 0.00316 µM) 58.6%; (second compound 0.316 µM, first compound 0.01 µM) 57.7%; under setting [11], 66%; under setting [12], 64.5%. The viability, T/C was 76.5% (second compound 1 µM, first compound 0.000316 µM); 87.3% (second compound 1 µM, first compound 0.001 µM); 79.8% (second compound 1 µM, first compound 0.00316 µM); 74.1% (second compound 1 µM, first compound 0.01 µM); 56.8% under setting [13]; 59.7% under setting [14]. In addition, the viability, T/C was 67.3% (second compound 3.16 µM, first compound 0.000316 µM); 69% (second compound 3.16 µM, first compound 0.001 µM); 69.3% (second compound 3.16 µM, first compound 0.00316 µM); 67.8% (second compound 3.16 µM, first compound 0.01 µM); 72.8% under setting [15]; 64.8% under setting [16]. The viability, T/C was 67.1% (second compound 10 µM, first compound 0.000316 µM); 56.3% (second compound 10 µM, first compound 0.001 µM); 74.3% (second compound 10 µM, first compound 0.00316 µM); 73.9% (second compound 10 µM, first compound 0.01 µM); 50.5% under setting [17]; 58.1% under setting [18].
As for `C#Cc1c(F)ccc2cc(O)cc(-c3ncc4c(N5CC6CCC(C5)N6)nc(OCC56CCCN5CC(F)C6)nc4c3F)c12` (stereo not given), the viability, T/C (compound 0.0316 µM) is 86.1% and 87.7%; the viability, T/C (compound 0.1 µM) is 102% and 104%; the viability, T/C (compound 0.316 µM) was 95.6% and 105%; the viability, T/C (compound 1 µM) is 92% and 87.8%; the viability, T/C (compound 3.16 µM) is 89.5% and 79%; the viability, T/C (compound 10 µM) was 76.6% and 78.5%. Further, under “curve of compound”, the IC50 was > 10000 nM.
For `CC1COCCN1c1cc(C2(S(C)(=N)=O)CC2)nc(-c2ccnc3[nH]ccc23)n1` (stereo not given), the viability, T/C (compound 0.0316 µM) is 101% and 95.8%; the viability, T/C (compound 0.1 µM) was 101% and 91.5%; the viability, T/C (compound 0.316 µM) is 98.3% and 92.1%; the viability, T/C (compound 1 µM) was 101% and 74.8%; the viability, T/C (compound 3.16 µM) is 99.7% and 89.2%; the viability, T/C (compound 10 µM) was 81.4% and 53.9%. Also, the IC50 (curve of compound) was > 10000 nM.
For `C=C(F)C(=O)N1CCN(c2nc(OCC3CCCN3C)nc3c2CCN(c2cccc4cccc(Cl)c24)C3)CC1CC#N` (stereo not given), the viability, T/C by setting is: (compound 0.0316 µM) 99.9% and 96.2%; (compound 0.1 µM) 86.9% and 90.1%; (compound 0.316 µM) 97% and 99.1%; (compound 1 µM) 95.4% and 97.3%; (compound 3.16 µM) 94.6% and 89.2%; (compound 10 µM) 38% and 87.9%. In addition, the IC50 (curve of compound) is 7840 nM and > 10000 nM.
